Read-outs that look alike come from different tables or passages of the source.
Experiments:
[1] = system: P. falciparum multidrug resistant line Dd2; assay: SYBR Green I-based antiplasmodial assay, asexual blood stage, Dd2; type: cell-based, Plasmodium falciparum
Method: The antiplasmodial activity of these analogs was assessed in P. falciparum asexual blood stage using a SYBR Green I-based assay. Compounds were tested in both the multidrug resistant line Dd2, and the chloroquine-sensitive line 3D7, to probe any potential for preexisting resistance. […] These methyldeoxaphomin analogs were also cross-screened for cytotoxicity in the human cell line HepG2 to determine their selectivity for the Plasmodium parasite. […] This effect was maintained with analog NPDG-F where both R1 and R2 were substituted with OH groups. […] In addition, the hydroxyl group at carbon 7 seems to be critical for function as a drastic loss of potency was found in NPDG-D as compared to B and C. […]
Plasmodium blood stage culture
Parasite culture in the Chakrabarti lab was maintained following a modified Trager and Jensen protocol (Trager & Jensen, 1976) as previously described (Lee et al., 2021) with RPMI 1640 with 25 mM HEPES pH 7.4, 26 mM NaHCO3, 15 mg/L hypoxanthine, 0.5% Albumax II, 25 mg/L gentamycin, and 2% dextrose. Parasites were grown with human A+ erythrocytes obtained from Florida OneBlood. Cultures were kept in an incubator with 5% […]
Antiplasmodial activity screening
SYBR Green I-based fluorescence assay was performed as previously described (Lee et al., 2021) following protocols by Smilkstein et. al. (Smilkstein et al., 2004). Asynchronous Dd2 parasites were added to serially diluted compounds and incubated for 72 h at 5% CO2, 95% air at 37°C. Plates were then frozen at -80°C, thawed, and incubated for one hour with 1x SYBR Green I in a lysis buffer (20 mM Tris-HCL, 0.08% saponin, 5 mM EDTA, and 0.8% Triton X-100). Fluorescence was then read on a Synergy Neo2 multimode reader (BioTek Winsooki, VT). […]

[2] = system: Plasmodium falciparum Dd2-Pol δ; assay: In vitro evolution of resistance, bulk culture populations; type: cell-based; settings: after selection from 90 nM to 17 μM over 6.3 mo
Method: We next sought to identify the molecular target of NPDG-F using in vitro evolution in a hypermutator line Dd2-Pol δ. This line was created to facilitate faster resistance development through the modification of the catalytic residues in DNA polymerase δ via CRISPR-Cas9 ([13]). Three populations of parasites grown in parallel were exposed to increasing concentrations of NPDG-F from the initial 90 nM to a final concentration of 17 μM over 6.3 mo. Once resistance (~4.2-fold) was identified in the 3 bulk culture populations, parasite DNA was extracted, followed by library preparation and whole-genome sequencing. […]
The in vitro evolution was conducted using Plasmodium falciparum Dd2-Pol δ. […] Every 2 or 3 days, parasitemia was determined via Giemsa smear and reset to 2% (for a 3-day split, 1.6 X108 parasites) or 3% (for a 2-day split, 2.4 X108). […] Resistance development was monitored every 3 months through SYBR green I- based EC50 dose response assay as described above. […]
Parasite genomic DNA was extracted from the parent and the resistant lines using DNeasy Blood & Tissue Kit (Qiagen). […] The pooled libraries were sequenced on Illumina NovaSeq 6000 with S4 200 chemistry to generate paired end reads with 100bp in length.
Reads were aligned to Plasmodium falciparum reference genome 3D7 (PlasmoDB v13.0) using an in-house pipeline (Cowell & Winzeler, 2019). […]

`C=C1C(C)C2C(Cc3ccccc3)NC(=O)C23C(=O)C=CC(O)C(O)C(C)CC(C)CC=CC3C1O` (stereo not drawn) [Methyldeoxaphomin NPDG-F] was tested, and the EC50 ([1]; Plasmodium falciparum, DD2, 72 h, read-out: Dd2 EC50, means from triplicate experiments ± SEM, 72 h) was 550 nM, the EC50 ([1]; Plasmodium falciparum, DD2, read-out: Dd2: Average EC50, average ± SEM of three replicates) was 550 ± 40 nM and the EC50 ([1]; Plasmodium falciparum, DD2, read-out: Dd2: EC50, individual replicates) was 500 nM. The EC50 ([1]; Plasmodium falciparum, DD2, read-out: EC50 in Dd2, abstract) was 550 nM, the EC50 ([1]; read-out: Dd2: EC50, individual replicates) was 580 nM and the “resistance in the 3 bulk culture populations” value [2] was ~ 4.2 fold.

— publication PMC11874377, “Fungal-derived methyldeoxaphomins target Plasmodium falciparum segregation through the inhibition of PfActin1” (Proceedings of the National Academy of Sciences of the …, 2025)
